Tested on: A1847 parental and CARM1 knockout cells
Assay: Epigenetic targeting small molecule set screen (14-day colony formation)
Assay type: cell-based, Human
Details: A1847 parental vs CARM1 knockout; 14 days; normalized to vehicle
Experimental: FIG. 26 illustrates that CARM1-expressing cells are selectively sensitized to EZH2 inhibitors. Equal number of parental control or CARM1 knockout […] cells were plated and treated with each of the 23 individual epigenetic inhibitors for 14 days. The media with the inhibitors was refreshed every 3 days. Cell growth was quantified as integrated density using NIH Image J software. Quantification of the average integrated density graphed as a scatter plot. The X-axis indicates the relative growth of treated CARM1 high parental […] cells compared with DMSO vehicle controls. Y-axis indicates the relative growth of treated CARM1 knockout […] cells compared with DMSO vehicle controls. n=4; and error bars represents SEM. FIG. 27 illustrates a table of EZH2 inhibitors that are selective against CARM1 expression. CARM1-high parental controls and CARM1 knockout […] cells were treated with the indicated concentration of the small molecules in a 14-day colony formation assay. Integrated density for each well was calculated using NIH Image J software. The relative growth of the indicated cells was determined by normalizing to the vehicle control treated cells. n=4 and p-value was calculated using a two-tailed t-test. FIG. 28 illustrates representative images of colonies formed by the cells treated with the indicated inhibitors. GSK126 and UNC1999 representative positive hits from the screen. […] parental and CARM1 knockout cells were plated in 24-well plates and treated with 24 epigenetic compounds. Cell medium was changed every three days with appropriate drug doses for 14 days or until control wells became confluent. Colonies were washed twice with PBS and fixed with 10% methanol and 10% acetic acid in distilled water. Fixed colonies were stained with 0.005% crystal violet. Integrated density was measured using NIH ImageJ software as a surrogate for cell growth.

Row | Compound | selective growth suppression of CARM1-expressing versus CARM1 KO cells
1 | CCCc1cc(C)[nH]c(=O)c1CNC(=O)c1cc(-c2ccc(N3CCN(C(C)C)CC3)nc2)cc2c1cnn2C(C)C [UNC1999, 1-isopropyl-6-(6-(4-isopropylpiperazin-1-yl)pyridin-3-yl)-N-((6-methyl-2-oxo-4-propyl-1,2-dihydropyridin-3-yl)methyl)-1H-indazole-4-carboxamide] | showed selectivity against CARM1-expressing cells
2 | CC(=O)Nc1ccc(C(=O)Nc2ccccc2N)cc1 [CI994] | equally effective in suppressing the growth of both CARM-expressing and KO cells
